The NIST ThermoML archive (doi:10.1021/je600554h)

Experiment: xn = mol fraction of the nth substance listed
Details: 100 kPa, Liquid; for viscosity: Capillary tube (Ostwald / Ubbelohde) method

COC(C)(C)C [2-methoxy-2-methylpropane] + CCCCCCCC
Details | mass density [kg/m3] | viscosity [mPa·s]
298.15 K, x1 = 0.8975 | 729.408 | –
303.15 K, x1 = 0.1019 | – | 0.468
303.15 K, x1 = 0.1059 | 696.633 | –
303.15 K, x1 = 0.2123 | 699.177 | –
303.15 K, x1 = 0.2189 | – | 0.447
303.15 K, x1 = 0.3019 | 701.546 | –
303.15 K, x1 = 0.3026 | – | 0.43
303.15 K, x1 = 0.4029 | – | 0.414
303.15 K, x1 = 0.4099 | 704.666 | –
303.15 K, x1 = 0.4995 | – | 0.397
303.15 K, x1 = 0.5053 | 707.798 | –
303.15 K, x1 = 0.6005 | 711.146 | –
303.15 K, x1 = 0.6099 | – | 0.382
303.15 K, x1 = 0.6934 | 714.806 | –
303.15 K, x1 = 0.7072 | – | 0.367
303.15 K, x1 = 0.7967 | 719.238 | –
303.15 K, x1 = 0.8975 | 724.303 | –
308.15 K, x1 = 0.1019 | – | 0.443
308.15 K, x1 = 0.1059 | 692.484 | –
308.15 K, x1 = 0.2123 | 694.926 | –
308.15 K, x1 = 0.2189 | – | 0.425
308.15 K, x1 = 0.3019 | 697.212 | –
308.15 K, x1 = 0.3026 | – | 0.409
308.15 K, x1 = 0.4029 | – | 0.393
308.15 K, x1 = 0.4099 | 700.213 | –
308.15 K, x1 = 0.4995 | – | 0.376
308.15 K, x1 = 0.5053 | 703.231 | –
308.15 K, x1 = 0.6005 | 706.458 | –
308.15 K, x1 = 0.6099 | – | 0.362
308.15 K, x1 = 0.6934 | 709.988 | –
308.15 K, x1 = 0.7967 | 714.261 | –
308.15 K, x1 = 0.8975 | 719.151 | –
313.15 K, x1 = 0.1019 | – | 0.42
313.15 K, x1 = 0.1059 | 688.303 | –
313.15 K, x1 = 0.2123 | 690.652 | –
313.15 K, x1 = 0.2189 | – | 0.402
313.15 K, x1 = 0.3019 | 692.842 | –
313.15 K, x1 = 0.3026 | – | 0.387
313.15 K, x1 = 0.4029 | – | 0.374
313.15 K, x1 = 0.4099 | 695.728 | –
313.15 K, x1 = 0.4995 | – | 0.358
313.15 K, x1 = 0.5053 | 698.629 | –
313.15 K, x1 = 0.6005 | 701.736 | –
313.15 K, x1 = 0.6934 | 705.127 | –
313.15 K, x1 = 0.7967 | 709.24 | –
313.15 K, x1 = 0.8975 | 713.95 | –
318.15 K, x1 = 0.1019 | – | 0.398
318.15 K, x1 = 0.1059 | 684.108 | –
318.15 K, x1 = 0.2123 | 686.345 | –
318.15 K, x1 = 0.2189 | – | 0.381
318.15 K, x1 = 0.3019 | 688.444 | –
318.15 K, x1 = 0.3026 | – | 0.367
318.15 K, x1 = 0.4029 | – | 0.355
318.15 K, x1 = 0.4099 | 691.207 | –
318.15 K, x1 = 0.5053 | 693.985 | –
318.15 K, x1 = 0.6005 | 696.968 | –
318.15 K, x1 = 0.6934 | 700.224 | –
318.15 K, x1 = 0.7967 | 704.169 | –
318.15 K, x1 = 0.8975 | 708.696 | –
323.15 K, x1 = 0.1019 | – | 0.377
323.15 K, x1 = 0.1059 | 679.876 | –
323.15 K, x1 = 0.2123 | 682.017 | –
323.15 K, x1 = 0.2189 | – | 0.361
323.15 K, x1 = 0.3019 | 684.017 | –
323.15 K, x1 = 0.3026 | – | 0.349
323.15 K, x1 = 0.4099 | 686.655 | –
323.15 K, x1 = 0.5053 | 689.306 | –
323.15 K, x1 = 0.6005 | 692.159 | –
323.15 K, x1 = 0.6934 | 695.271 | –
323.15 K, x1 = 0.7967 | 699.039 | –
328.15 K, x1 = 0.1019 | – | 0.359
328.15 K, x1 = 0.1059 | 675.617 | –
328.15 K, x1 = 0.2123 | 677.665 | –
328.15 K, x1 = 0.2189 | – | 0.344
328.15 K, x1 = 0.3019 | 679.549 | –
328.15 K, x1 = 0.4099 | 682.067 | –
328.15 K, x1 = 0.5053 | 684.587 | –
328.15 K, x1 = 0.6005 | 687.304 | –
328.15 K, x1 = 0.6934 | 690.272 | –
333.15 K, x1 = 0.1019 | – | 0.342
333.15 K, x1 = 0.1059 | 671.333 | –
333.15 K, x1 = 0.2123 | 673.25 | –
333.15 K, x1 = 0.3019 | 675.046 | –
333.15 K, x1 = 0.4099 | 677.434 | –
333.15 K, x1 = 0.5053 | 679.825 | –
333.15 K, x1 = 0.6005 | 682.397 | –
338.15 K, x1 = 0.1059 | 667.018 | –
338.15 K, x1 = 0.2123 | 668.815 | –
338.15 K, x1 = 0.3019 | 670.514 | –
338.15 K, x1 = 0.4099 | 672.758 | –
343.15 K, x1 = 0.1059 | 662.68 | –
343.15 K, x1 = 0.2123 | 664.349 | –
343.15 K, x1 = 0.3019 | 665.923 | –
343.15 K, x1 = 0.4099 | 668.038 | –
348.15 K, x1 = 0.1059 | 658.279 | –
348.15 K, x1 = 0.2123 | 659.83 | –
348.15 K, x1 = 0.3019 | 661.299 | –
353.15 K, x1 = 0.1059 | 653.843 | –
353.15 K, x1 = 0.2123 | 655.28 | –
353.15 K, x1 = 0.3019 | 656.638 | –
358.15 K, x1 = 0.1059 | 649.405 | –
358.15 K, x1 = 0.2123 | 650.681 | –
358.15 K, x1 = 0.3019 | 651.917 | –
363.15 K, x1 = 0.1059 | 644.85 | –
363.15 K, x1 = 0.2123 | 646.031 | –
363.15 K, x1 = 0.3019 | 647.14 | –
